Data on one molecule can be found in patent publication US20210252265A1, “DEVICES AND METHODS FOR ULTRASONIC DELIVERY OF AN AGENT WITHIN AN ORAL CAVITY” (Suono Bio, Inc., priority 2018, published 2021).

The test system of this assay is oral inflammatory lesions in hamster cheek pouches. Put plainly: Treatment of acetic acid-induced oral inflammatory lesions in hamster cheek pouches. In kind it is in vivo, Golden Syrian hamsters. The conditions noted are these: mean +/- SEM. The protocol:
FIG. 10 is a schematic of the procedure used to test delivery of budesonide to treat or prevent ulcers induced by acetic acid in hamster cheek pouches. 50% acetic acid was administered for 60 seconds. Male Golden Syrian hamsters weighing 100-120 g (Charles River Laboratories, Wilmington, Mass.) were used as received and randomly assigned to experimental groups by the researchers performing the work. To limit pain and distress, all animals received buprenorphine sustained release (SR) (subcutaneous administration, 1 mg/kg body weight, compounded by ZooPharm) just prior to the application of acetic acid for the induction of the oral lesion on day 0. All manipulations occurred with the animal under general anesthesia by inhaled isoflurane. Experimental treatment groups included topical application of budesonide solution with (Budesonide+US) and without (Budesonide) ultrasound. A positive disease control receiving no treatment was also included (Disease). Treatment was administered on day 0 immediately prior to lesion induction using acetic acid. While under general anesthesia, the left cheek pouch was everted, the device was placed on the buccal surface, and the fluid chamber filled with solubilized budesonide solution (0.1%, ˜1 mL). For the Budesonide+US treatment group, ultrasound was simultaneously applied for 3 seconds at an intensity of 5 W/cm2 and a 100% duty cycle. In experimental groups receiving budesonide only (Budesonide), drug was applied as described above without turning the ultrasound on. Immediately following budesonide treatment, oral lesions were induced by topical application of acetic acid (50% solution) as described in previous studies. Briefly, acetic acid was applied to the buccal surface using a liquid holder with a circular area of 5 mm2 for 60 seconds. After acetic acid application, the hamsters were placed back into their cages to recover. On every subsequent day, the cheek pouches were everted to reveal the lesion and an image captured to quantify lesion size. Treatments were then applied as described above. Lesion size was measured using ImageJ (National Institutes of Health, Bethesda, Md.). All data analysis was performed using GraphPad Prism software (GraphPad Software, Inc., La Jolla, Calif., USA). Two-group comparisons were made using Student's unpaired t-test using Welch's correction. Multiple comparisons were made using one-way ANOVA followed by Tukey's post-test. For all comparisons, p<0.05 was considered statistically significant. Data are reported as mean±standard error of the mean (SEM) except for temperature measurements that are reported as mean±standard deviation (SD).

Turning to `CCCC1O[C@@H]2C[C@H]3[C@@H]4CCC5=CC(=O)C=C[C@]5(C)[C@H]4[C@@H](O)C[C@]3(C)[C@]2(C(=O)CO)O1` (stereo partly shown) [Budesonide], the oral lesion size is 15.7+/−1.3 mm2 (24 hours post-acetic acid induced injury, budesonide solution 0.1% with 40 kHz ultrasound 3 seconds, 5 W/cm2); 20.3+/−1.1 mm2 (24 hours post-acetic acid induced injury, topical budesonide solution 0.1% without ultrasound); 18.71+/−2.3 mm2 (48 hours after acetic acid-induced injury, budesonide with ultrasound); 25.5+/−1.6 mm2 (48 hours after acetic acid-induced injury, topical budesonide without ultrasound).
